Measurements reported in patent publication US7855177B1, “Methods and kits for preventing hypoglycemia” (Cebix Inc., priority 2009, dated 2010).

What was measured:
[1] = test system: type 1 diabetes patients with peripheral neuropathy; experiment: Phase II trial: hypoglycemic events and hypoglycemic coma; format: in vivo, human
Protocol: The study was a multicenter, double-blind, randomized, placebo-controlled phase II trial comparing the effect of subcutaneous injection (S.C.) of 500 nmoL/24 h (1.5 mg) C-peptide; 1,500 nmoL/24 h (4.5 mg) C-peptide and placebo treatment for 6 months in type 1 diabetes patients with peripheral neuropathy.
Hypoglycemic events are common events in insulin-treated patients. For practical reasons only severe hypoglycemic events, i.e., if the patient required assistance from another person in order to regain normoglycaemia, were reported as an AE.

[2] = Phase II trial: C-peptide plasma levels (time-resolved fluoroimmunoassay); format: in vivo, human
Protocol: The sampling of C-peptide in plasma at visits 2 and 4 coincided with the clinical visit and the time between the most recent administration of the trial drug and sampling varied between patients. Thereby, the result of C-peptide concentrations in plasma was less suitable for pharmacokinetic evaluations, but the results contributed to the assessment of treatment compliance.
C-peptide plasma levels were measured at baseline, and after 3 and 6 months of treatment. Analysis was performed by the Department of Clinical Chemistry Karolinska University Hospital, Solna using a time-resolved fluoroimmunoassay (AutoDelfia, Wallac Oy, Turku, Finland). […] The plasma levels of C-peptide attained in this study ranged from about 0.2 nM to a maximum of about 6 nM in the high dose group.
C-peptide plasma levels were also measured pre-dosing in the morning in 22 randomly selected patients at the Karolinska Hospital after 4.5 months of study treatment (visit 3). As compared to the C-peptide concentration at baseline, the C-peptide plasma level at this visit was unchanged in the placebo-treated patients (0±0.008 nmoL/L; n=10), increased by 0.045±0.092 nmoL/L in the low-dose C-peptide group (n=8) and increased by 0.13±0.083 nmoL/L in the high-dose C-peptide group (n=4).

[3] = test system: type 1 diabetes patients with peripheral neuropathy; experiment: Phase II trial: ECG and vital signs; format: in vivo, human; conditions: for BPd (diastolic blood pressure), change from baseline to 6 months treatment, Mean ± SD / BPd (diastolic blood pressure), change from baseline to 6 months treatment, Median / BPs (systolic blood pressure), change from baseline to 6 months treatment, Mean ± SD / BPs (systolic blood pressure), change from baseline to 6 months treatment, Median / Heart rate, change from baseline to 6 months treatment, Mean ± SD / Heart rate, change from baseline to 6 months treatment, Median / QTc-interval Bazett, change from baseline to 6 months treatment, Mean ± SD / QTc-interval Bazett, change from baseline to 6 months treatment, Median / QTc-interval Fredericia, change from baseline to 6 months treatment, Mean ± SD / QTc-interval Fredericia, change from baseline to 6 months treatment, Median: PP data set
Protocol: ECG was performed at baseline and at end of study, i.e., visit 4 (at 6 months±2 weeks from the S/B visit).

C-peptide antibodies = experiment: Phase II trial: antibody formation against C-peptide (ELISA); format: in vivo, human; conditions: baseline and after 3 and 6 months of C-peptide treatment
Excerpt: C-peptide plasma samples, C-peptide antibodies, and markers for atherosclerosis were processed (centrifuged, etc.) and stored frozen until transport to a central lab. HLA typing samples were shipped to a central lab for processing and storage until analysis. All samples there were labelled uniquely, including information about screening number and sample time.
Samples for the assessment of antibody formation were collected at baseline and at visits 2 and 4. An appropriate enzyme-linked immunoabsorbant assay (ELISA) method was developed and assessments carried out.

[4] = test system: type 1 diabetes patients with peripheral neuropathy; experiment: Phase II trial: clinical laboratory evaluation (hematology, blood chemistry, urinalysis); format: in vivo, human; conditions: following the study treatment
Excerpt: Hematology: hemoglobin, hematocrit, mean cell volume, leukocytes, platelets, differential count
Blood chemistry: sodium, potassium, C-reactive protein (CRP), alanine transaminase, aspartate transaminase, serum creatinine, albumin
Urinanalysis: protein, blood, nitrite
Before starting the study, the investigator supplied the Sponsor with a list of the normal laboratory ranges and units of measurement for the laboratory variables to be determined during the study at the site. All abnormal laboratory (those out of the normal range) values required comments on the CRF, regardless of the clinical significance: […]

[5] = test system: type 1 diabetes patients with peripheral neuropathy; conditions: in vivo
Protocol: The safety measurements comprised collection of AEs, spontaneously reported by the patient or recorded by the investigator at each clinical visit. Review of laboratory investigations, vital signs, and physical examinations was performed at the S/B visit, visit 2, and at end of study (visit 4). ECG was performed at the S/B visit and at visit 4.
An AE was classified as “unexpected event” (i.e., if not specifically listed in the Investigator's Brochure) in terms of nature, severity, or frequency. All AEs, including intercurrent illnesses and increased severity or frequency of sign/symptoms of a concomitant disease was reported and documented as described below. AEs were documented on an “Adverse Event/Serious Adverse Event” page of the CRF and in the patient's medical records. Any AE occurring at any time after the end of the study, considered to be caused by the study medication—and therefore a possible adverse drug reaction—was reported to the sponsor.
The period of observation for AEs extended from the time the patient started on trial medication until end of the study. AEs were divided into the categories “serious” and “non-serious”. This determined the procedure used to report/document the AE.
Regardless of the classification of an AE as serious or non-serious (see above), its severity was assessed as mild, moderate, or severe, according to medical criteria alone:
Descriptive statistics were used for safety variables. For lab parameters summary statistics were presented as change from baseline and between doses. The changes from baseline were calculated and compared with normal ranges. The safety analysis set included all patients who obtained at least one dose of the investigational drug. AEs were coded according to the MedDRA dictionary. The frequencies of AEs are tabulated by body system and included/preferred term.

[6] = High-dose C-peptide, Metabolism and nutritional disorders
[7] = Low-dose C-peptide, Metabolism and nutritional disorders

CC(C)C[C@H](NC(=O)[C@H](C)NC(=O)[C@H](CC(C)C)NC(=O)[C@@H]1CCCN1C(=O)[C@H](CCC(N)=O)NC(=O)[C@H](CC(C)C)NC(=O)[C@H](CO)NC(=O)CNC(=O)[C@H](C)NC(=O)CNC(=O)[C@@H]1CCCN1C(=O)CNC(=O)CNC(=O)CNC(=O)[C@H](CC(C)C)NC(=O)[C@H](CCC(=O)O)NC(=O)[C@@H](NC(=O)[C@H](CCC(N)=O)NC(=O)CNC(=O)[C@@H](NC(=O)[C@H](CCC(N)=O)NC(=O)[C@H](CC(C)C)NC(=O)[C@H](CC(=O)O)NC(=O)[C@H](CCC(=O)O)NC(=O)[C@H](C)NC(=O)[C@@H](N)CCC(=O)O)C(C)C)C(C)C)C(=O)N[C@@H](CCC(=O)O)C(=O)NCC(=O)N[C@@H](CO)C(=O)N[C@@H](CC(C)C)C(=O)N[C@@H](CCC(N)=O)C(=O)O [C-peptide]
hypoglycemic coma episodes requiring external assistance ([1]; C-peptide treated group): Two
occurrences of hypoglycemic coma ([1]; C-peptide treated groups, 6 months, none in placebo group): four
Blood glucose fluctuation, number of AEs [1, 6]: 0
Hyperglycemia, number of AEs [1, 6]: 1
Hyperlipidemia, number of AEs [1, 6]: 0
Hypoglycemia, number of AEs [1, 6]: 5
Hypoglycemia, number of AEs probably/possibly related to study drug [1, 6]: 1
Hypoglycemic coma, number of AEs [1, 6]: 2
Hypothyroidism, number of AEs [1, 6]: 0
Increased appetite, number of AEs [1, 6]: 0
Insulin sensitivity, number of AEs [1, 6]: 0
Vitamin B12 deficiency, number of AEs [1, 6]: 1
Blood glucose fluctuation, number of AEs [1, 7]: 0
Hyperglycemia, number of AEs [1, 7]: 1 (1)
Hyperglycemia, number of AEs probably/possibly related to study drug [1, 7]: 1 (1)
Hyperlipidemia, number of AEs [1, 7]: 1
Hypoglycemia, number of AEs [1, 7]: 2
Hypoglycemia, number of AEs probably/possibly related to study drug [1, 7]: 1
Hypoglycemic coma, number of AEs [1, 7]: 2
Hypothyroidism, number of AEs [1, 7]: 0
Increased appetite, number of AEs [1, 7]: 0
Insulin sensitivity, number of AEs [1, 7]: 1 (1)
Insulin sensitivity, number of AEs probably/possibly related to study drug [1, 7]: 1 (1)
Vitamin B12 deficiency, number of AEs [1, 7]: 0
risk of hypoglycemic coma ([1]; subpopulation of patients, C-peptide replacement therapy): increased risk of hypoglycemic coma
expected concentrations relative to the low dose regimen ([2]; high dose 1,500 nmoL/24 h S.C., expected): ~3 times
increase of pre-dosing morning C-peptide plasma level vs baseline ([2]; high-dose C-peptide group, n=4, 4.5 months (visit 3)): 0.13 ± 0.083 nmol/L
expected physiological mean plasma concentration ([2]; low dose 500 nmoL/24 h S.C., 4 times daily, expected): ~1 nmoL/L
increase of pre-dosing morning C-peptide plasma level vs baseline ([2]; low-dose C-peptide group, n=8, 4.5 months (visit 3)): 0.045 ± 0.092 nmol/L
BPd (diastolic blood pressure), change from baseline to 6 months treatment, Mean ± SD ([3]; High-dose C-peptide, n = 39): −2.6 ± 8.0 mm Hg
BPd (diastolic blood pressure), change from baseline to 6 months treatment, Median ([3]; High-dose C-peptide, n = 39): −1.0 mm Hg
BPs (systolic blood pressure), change from baseline to 6 months treatment, Mean ± SD ([3]; High-dose C-peptide, n = 39): −8.8 ± 10.0 mm Hg
BPs (systolic blood pressure), change from baseline to 6 months treatment, Median ([3]; High-dose C-peptide, n = 39): −8.0 mm Hg
Heart rate, change from baseline to 6 months treatment, Mean ± SD ([3]; High-dose C-peptide, n = 39): −3.2 ± 10.0 bpm
Heart rate, change from baseline to 6 months treatment, Median ([3]; High-dose C-peptide, n = 39): −4.0 bpm
QTc-interval Bazett, change from baseline to 6 months treatment, Mean ± SD ([3]; High-dose C-peptide, n = 39): -4.5 ± 20.3 ms
QTc-interval Bazett, change from baseline to 6 months treatment, Median ([3]; High-dose C-peptide, n = 39): 0.0 ms
QTc-interval Fredericia, change from baseline to 6 months treatment, Mean ± SD ([3]; High-dose C-peptide, n = 39): -0.5 ± 16.2 ms
QTc-interval Fredericia, change from baseline to 6 months treatment, Median ([3]; High-dose C-peptide, n = 39): 0.0 ms
BPd (diastolic blood pressure), change from baseline to 6 months treatment, Mean ± SD ([3]; Low-dose C-peptide, n = 53): −2.7 ± 8.2 mm Hg
BPd (diastolic blood pressure), change from baseline to 6 months treatment, Median ([3]; Low-dose C-peptide, n = 53): −1.0 mm Hg
BPs (systolic blood pressure), change from baseline to 6 months treatment, Mean ± SD ([3]; Low-dose C-peptide, n = 53): −2.1 ± 12.8 mm Hg
BPs (systolic blood pressure), change from baseline to 6 months treatment, Median ([3]; Low-dose C-peptide, n = 53): −1.0 mm Hg
Heart rate, change from baseline to 6 months treatment, Mean ± SD ([3]; Low-dose C-peptide, n = 53): −0.9 ± 8.2 bpm
Heart rate, change from baseline to 6 months treatment, Median ([3]; Low-dose C-peptide, n = 53): −2.0 bpm
QTc-interval Bazett, change from baseline to 6 months treatment, Mean ± SD ([3]; Low-dose C-peptide, n = 53): -0.1 ± 17.5 ms
QTc-interval Bazett, change from baseline to 6 months treatment, Median ([3]; Low-dose C-peptide, n = 53): 0.0 ms
QTc-interval Fredericia, change from baseline to 6 months treatment, Mean ± SD ([3]; Low-dose C-peptide, n = 53): 0.9 ± 14.1 ms
QTc-interval Fredericia, change from baseline to 6 months treatment, Median ([3]; Low-dose C-peptide, n = 53): 1.3 ms
changes in heart rate, blood pressure, and QTc ([3]; any of the three treatment groups): nor were there any significant changes
decrease in systolic blood pressure compared to the low-dose C-peptide group ([3]; high-dose C-peptide group, p<0.004, not different from placebo): significantly greater decrease
reactivity (antibodies) to C-peptide (C-peptide antibodies): no or very weak reactivity
changes in laboratory variables [4]: no significant changes in any of the variables
AEs possibly/probably related to the study drug [5]: 8
Acute HIV infection, number of AEs [5]: 1
Infections and infestations: Acute HIV infection, treatment emergent AE intensity (number of incidences) [5]: M (1)
Infections and infestations: Herpes zoster, treatment emergent AE intensity (number of incidences) [5]: M (1)
Nasopharyngitis, number of AEs [5]: 23
